From US20200329707A1, “PYRAZOLAMIDE COMPOUND HAVING INSECTICIDAL ACTIVITY AND USE THEREOF” (JIANGSU FLAG CHEMICAL INDUSTRY CO., LTD., priority 2017, published 2020)

Key:
Format in all cases: in vivo
Helicoverpa armigera = experiment: Insecticidal effect on Helicoverpa armigera, immersed cabbage leaf discs in 24-well plate; conditions: foliar, 72 h, read-out: Insecticidal activity (%) on Helicoverpa armigera (mortality %)
Experimental: (§1) The test reagents were all individually dissolved in a mixed solvent of acetone:[…] (1:1) to give a 1000 mg/L solution. 1% Tween-80 was added as an emulsifier to each solution. These solutions were then diluted with 1% Tween-20 solution in water to give desired concentrations of test solutions. An aqueous solution containing 1% Tween-20 was used as a control.
Third instar larvae of Helicoverpa armigera were used, and the insecticidal effect test was carried out by feeding with leaves immersed with various compounds. The cabbage leaves that had not been exposed to insecticides were punched into leaf discs having a diameter of […]. The leaf discs were immersed in each compound solution for 30 s. Then the leaf discs were placed on absorbent paper and air-dried until there were no obvious water stains on the leaf discs. A washed 24-well plate was prepared, and about 1 ml of water agar medium was fed to each well. After solidification, the treated leaf discs were placed on the medium in the 24-well plate, and then 1 3rd-instar larva of Helicoverpa armigera was inoculated into each well. The 24-well plate was covered after inoculation, placed in an insect cultivating chamber at 25° C. with a 16-h-light/8-h-dark photoperiod. The number of deaths in 3 days was investigated, and the mortality was calculated.

Frankliniella intonsa = experiment: Insecticidal effect on Frankliniella intonsa, treated filter paper in petri dish; conditions: 60 ppm reagent solution; nymphs; 72 hrs
Experimental: as §1
On the bottom of a glass petri dish with a diameter of 6 cm, a piece of filter paper with the same diameter was laid. 1 mL of the reagent solution was drawn by a pipette and uniformly dripped on the filter paper. After the acetone was volatilized, Nymphs of Frankliniella intonsa were transferred from Bombax ceiba with a brush pen to the filter paper in the petri dish. After 0.5-1 h when the insect body was fully covered with the reagent, 3 cm-long petals of Bombax ceiba were placed and the Petri dish were covered. 3 replicates were set for each treatment. After the insects were inoculated, the petri dish was placed in an insect-cultivating chamber at 25° C. with a 16-h-light/8-h-dark photoperiod. 72 hrs after the insects were inoculated, the deaths of Frankliniella intonsa were investigated to calculate the mortality.

Spodoptera litura = experiment: Insecticidal effect on Spodoptera litura, feeding with immersed cabbage leaf discs; conditions: 40 ppm reagent solution; 3rd instar larvae; deaths in 5 days
Experimental: as §1
Third instar larvae of Spodoptera litura were used, and the insecticidal effect test was carried out by feeding with leaves immersed with various compounds. The cabbage leaves that had not been exposed to insecticides were cut into leaf discs of about 40 square-mm with scissors. The leaf discs were immersed in each compound solution for 30 s. Then the leaf discs were placed on absorbent paper and air-dried until there were no obvious water stains on the leaf discs. The leaf discs soaked with the reagents were placed in a petri dish (7 cm), each petri dish having 3 leaf discs. The 3rd instar larvae of Spodoptera litura raised on the indoor cabbage plants were gently picked up with a pen brush and placed on the leaf discs in the petri dish, each petri dish having 10-15 insects. After the insects were inoculated, the petri dish was covered, and placed in an insect-cultivating chamber at 25° C. with a 16-h-light/8-h-dark photoperiod. The number of deaths in 5 days was investigated, and the mortality was calculated.

With Cc1cc(Cl)cc(C(=O)NC(C)(C)C(N)=O)c1NC(=O)c1cc(Br)nn1-c1ncccc1Cl [Compound 1.1, N-(2-N-((1-amino-2-methyl-1-acylpropan-2-yl)-formyl)-4-chloro-6-methylphenyl)-1-(3-chloropyridin-2-yl)-3-bromo-1H-pyrazol-5-carboxamide] as the molecule, how does the mortality at 5 ppm (Helicoverpa armigera) read?
The mortality at 5 ppm was 75%.

What about the mortality at 15 ppm (Helicoverpa armigera) of the same molecule?
The mortality at 15 ppm was 87.5%.

And the “control effect on Frankliniella intonsa” value (Frankliniella intonsa)?
Its value is “more than 80%”.

What about the “control effect on Spodoptera litura” value (Spodoptera litura) of the same molecule?
Its value is “more than 80%”.

Which results are given for CC(C)(NC(=O)c1cc(Cl)cc(Cl)c1NC(=O)c1cc(Cl)nn1-c1ncccc1Cl)C(N)=O [KC1]?
mortality at 5 ppm (Helicoverpa armigera): 10%; mortality at 15 ppm (Helicoverpa armigera): 46.7%

With CC(C)(NC(=O)c1cc(Cl)cc(Cl)c1NC(=O)c1cc(Br)nn1-c1ncccc1Cl)C(N)=O [KC2] as the molecule, how does the mortality at 5 ppm (Helicoverpa armigera) read?
The mortality at 5 ppm was 16.7%.

And the mortality at 15 ppm (Helicoverpa armigera)?
Its mortality at 15 ppm is 37.5%.
